“Also recorded” adds a separate entry of the source. Like-named read-outs stand apart in the source and are kept apart here. One block for each compound: values may come before it.
Legend:
BACE2 = target: T1, BACE2 (Homo sapiens, UniProt Q9Y5Z0); assay: BACE2 purified enzyme fluorescence polarization assay; assay type: biochemical; conditions: for IC50: purified human enzyme, fluorescence polarization
T1 construct: purchased R&D Systems 4097-AS
T1 sequence (Q9Y5Z0 63-518): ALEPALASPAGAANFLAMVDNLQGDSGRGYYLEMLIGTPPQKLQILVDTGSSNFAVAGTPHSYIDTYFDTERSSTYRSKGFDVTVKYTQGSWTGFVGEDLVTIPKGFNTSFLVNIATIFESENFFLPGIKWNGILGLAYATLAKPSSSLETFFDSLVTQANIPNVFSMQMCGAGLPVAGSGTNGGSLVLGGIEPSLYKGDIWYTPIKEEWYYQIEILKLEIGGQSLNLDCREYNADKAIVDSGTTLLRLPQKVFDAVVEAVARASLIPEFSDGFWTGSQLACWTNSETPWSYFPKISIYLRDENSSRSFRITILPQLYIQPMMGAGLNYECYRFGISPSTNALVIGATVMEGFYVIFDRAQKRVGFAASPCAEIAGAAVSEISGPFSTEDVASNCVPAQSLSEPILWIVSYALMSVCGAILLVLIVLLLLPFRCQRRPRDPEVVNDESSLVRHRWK
Procedure: (§1) Purified enzyme inhibition of BACE1, BACE2, CatD and CatE was determined using fluorescence polarization (FP) assays. Briefly, purified enzymes were treated with test compounds (1% DMSO, 37 °C) in the presence of synthetic peptide substrates (150 nM) in 30 μl total volume of NaOAc buffer (100 mM, pH 4.5, 0.0001% Tween-20) in a 384-well plate. After incubation, reactions were stopped and substrate captured by the addition of 1.5 μM streptavidin, and FP measured with an EnVision plate reader (PerkinElmer, excitation 485 nm, emission 530 nm). […] BACE2 activity was assessed with 0.5 nM recombinant BACE2 (R&D Systems 4097-AS) and the same synthetic substrate used for BACE1, with a 1 h incubation time. […] CatE activity was assessed with 1.0 nM recombinant CatE (Creative BioMart CTSE-255H) and the same synthetic substrate used for CatD, with a 1.5 h incubation time.

BACE1 [1] = target: T2, BACE1 (Homo sapiens, UniProt P56817); assay: PF-7802 labelling of HEK293T cells overexpressing BACE1; assay type: cell-based; design: endogenous in cells; host or cells: H4 human neuroglioma cells overexpressing human APP695; conditions: 1 μM PF-7802, in-gel fluorescence
Procedure: (§2) Myc-DDK-tagged BACE1 and CatD were purchased as complementary DNA clones in the pCMV6-Entry vector (OriGene, catalogue nos RC209115 and RC200719). Site-directed mutagenesis was performed using the QuikChange II kit (Agilent) according to the manufacturer's protocols. For CatD M307A, forward primer 5′-[…]-3′ and its reverse complement primer were used. For CatD M309A, the forward primer was 5′-[…]-3′. Mutagenesis was confirmed by sequencing using primers provided by OriGene with the cDNA.
(§3) HEK-293T cells were plated at a density of 1 × 10^6 cells per well, allowed to adhere overnight and then transfected with Lipofectamine 3000 (Life Technologies) according to the manufacturer's protocol. […] Immunoblots were scanned using a LiCor Odyssey.
Target sequence in this assay (P56817 46-501): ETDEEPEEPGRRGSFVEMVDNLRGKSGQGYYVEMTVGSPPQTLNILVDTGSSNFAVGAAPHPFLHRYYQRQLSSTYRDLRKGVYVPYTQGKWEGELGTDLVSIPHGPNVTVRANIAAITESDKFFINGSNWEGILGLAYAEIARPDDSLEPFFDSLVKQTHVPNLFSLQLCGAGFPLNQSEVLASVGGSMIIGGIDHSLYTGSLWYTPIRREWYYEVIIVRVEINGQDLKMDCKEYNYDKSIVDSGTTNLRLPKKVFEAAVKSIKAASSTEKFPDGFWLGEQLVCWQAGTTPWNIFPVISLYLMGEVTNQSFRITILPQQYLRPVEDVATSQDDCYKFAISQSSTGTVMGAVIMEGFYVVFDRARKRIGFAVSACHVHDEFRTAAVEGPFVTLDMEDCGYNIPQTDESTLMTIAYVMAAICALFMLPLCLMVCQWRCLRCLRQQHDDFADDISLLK

CatD [2] = target: T3, CatD (Homo sapiens, UniProt P07339); assay: CatD purified enzyme fluorescence polarization assay; assay type: biochemical; design: final maturation into a non-covalently associated heavy chain and light chain; purchased Sigma C8696; host or cells: human liver; conditions: for IC50: purified human enzyme, fluorescence polarization, substrate-based
Procedure: as §1
Target sequence in this assay (P07339 65-162 limits assumed): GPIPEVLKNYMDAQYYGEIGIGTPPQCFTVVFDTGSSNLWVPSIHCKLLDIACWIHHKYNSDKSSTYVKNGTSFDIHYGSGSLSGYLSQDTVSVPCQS
Target sequence in this assay (P07339 169-412 limits assumed): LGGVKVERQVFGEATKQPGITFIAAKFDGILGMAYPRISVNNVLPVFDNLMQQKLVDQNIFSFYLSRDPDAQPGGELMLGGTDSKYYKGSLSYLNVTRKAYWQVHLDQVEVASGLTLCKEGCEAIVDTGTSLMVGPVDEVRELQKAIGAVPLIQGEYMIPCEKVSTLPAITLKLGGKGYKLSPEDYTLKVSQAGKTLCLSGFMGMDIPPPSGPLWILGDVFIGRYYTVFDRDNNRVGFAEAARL

Microsomal stability = assay type: in vitro ADME
BACE1 [3] = target: T2, BACE1; assay: BACE1 purified enzyme fluorescence polarization assay; assay type: biochemical; design: His (C); made in house; host or cells: CHO-K1; conditions: for IC50: purified human enzyme, fluorescence polarization, peptide substrate
Procedure: as §1
Target sequence in this assay (P56817 46-457): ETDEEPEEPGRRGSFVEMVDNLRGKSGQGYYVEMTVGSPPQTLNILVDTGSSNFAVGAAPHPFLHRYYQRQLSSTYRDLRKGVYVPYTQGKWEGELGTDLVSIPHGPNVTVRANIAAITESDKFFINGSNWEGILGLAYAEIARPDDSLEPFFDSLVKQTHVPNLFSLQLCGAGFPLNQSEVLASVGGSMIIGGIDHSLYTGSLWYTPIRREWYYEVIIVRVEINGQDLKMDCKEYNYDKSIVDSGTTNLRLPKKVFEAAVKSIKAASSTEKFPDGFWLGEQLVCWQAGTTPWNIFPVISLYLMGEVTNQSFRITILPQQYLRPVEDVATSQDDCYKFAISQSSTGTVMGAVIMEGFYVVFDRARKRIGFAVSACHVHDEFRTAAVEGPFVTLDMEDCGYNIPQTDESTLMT

CatD [4] = target: T3, CatD; assay: PF-7802 labelling of HEK293T cells overexpressing CatD; assay type: cell-based; design: Myc-DDK (FLAG) (C); host or cells: HEK293T; conditions: 1 μM PF-7802, in-gel fluorescence
Procedure: as §2, §3
Target sequence in this assay (P07339 65-412): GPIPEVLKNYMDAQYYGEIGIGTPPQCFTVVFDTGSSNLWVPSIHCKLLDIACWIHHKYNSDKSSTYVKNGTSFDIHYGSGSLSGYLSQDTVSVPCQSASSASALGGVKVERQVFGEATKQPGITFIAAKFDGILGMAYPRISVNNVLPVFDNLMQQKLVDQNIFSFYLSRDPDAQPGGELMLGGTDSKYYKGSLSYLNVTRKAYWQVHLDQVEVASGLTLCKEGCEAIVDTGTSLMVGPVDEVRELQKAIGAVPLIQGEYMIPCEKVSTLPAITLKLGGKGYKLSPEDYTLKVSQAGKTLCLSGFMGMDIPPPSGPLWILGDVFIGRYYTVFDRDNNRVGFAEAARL

BACE1 [5] = target: T2, BACE1; assay: BACE1 biochemical cellular assay (sAPPβ ELISA in H4 cells overexpressing APP695); assay type: cell-based; design: endogenous in cells; host or cells: H4 human neuroglioma cells overexpressing human APP695; conditions: for IC50: sAPPβ ELISA, H4 neuroglioma cells with human wild-type APP
Procedure: Cellular inhibition of BACE1 was determined by measuring sAPPβ, the primary cleavage product of BACE-1, in H4 human neuroglioma cells overexpressing the wild-type human APP695. […] The colorimetric reaction was read by an EnVision plate reader (PerkinElmer).
Target sequence in this assay (P56817 46-501): as the sequence (P56817 46-501) above

retina = conditions: mouse, in vivo; cited from earlier work
[6] = Plasma exposure (average unbound plasma concentration) in rats; assay type: in vivo, rat; conditions: rat, 14 days; for concentration at 29 days: average unbound plasma concentration, read-out: Avg Cp,u parent; for Avg Cp,u metabolite: metabolite of the dosed compound
Procedure: (§4) Wistar Han rats (obtained from Charles River, 125–300 g, 6–9 weeks old at study start, see Supplementary Table 7 for number of males and females) received daily oral dosing of test compounds or vehicle at the indicated concentrations for 7–29 days as indicated. The doses were prepared in a solution of 0.5% methylcellulose and 0.2% polysorbate 80, or 0.5% methylcellulose and hydroxypropyl methylcellulose acetate succinate (high fine grade) and delivered in a volume of 10 ml kg^−1 per day. Blood samples for bioanalytical analysis were collected in K2EDTA tubes via jugular vessel. Plasma was isolated after centrifugation and stored at −20 °C prior to analysis. Animals were given an additional dose the day after the end of the study (days 8, 15 or 30 for 7, 14 and 29 day studies, respectively) then killed by gas anaesthesia (isoflurane) followed by exsanguination ∼3 h after this final dose.
Plasma samples were analysed after protein precipitation by treating 20 μl of sample matrix with 200 μl of acetonitrile containing internal standard. All samples were centrifuged at 3,000 r.p.m. for 5 min. Then 100 μl of supernatant was transferred to a clean plate and evaporated to dryness under N2. Samples were reconstituted in 200 μl of 80:20 (v:v) acetonitrile:water. Samples were analysed on Waters Acquity UPLC connected to AB Sciex API5500 QTrap MS/MS.
Plasma protein binding was determined in the Rapid Equilibrium Device (RED, Thermo Scientific). Frozen plasma was warmed to 37 °C and adjusted to pH 7.4. The plasma was spiked with compound to a final concentration of 2 μM. Aliquots of spiked plasma were added to the donor (red) side, followed by addition of buffer to the receiver (white) side. The RED device was covered with a gas-permeable membrane and agitated within a humidified CO2 incubator (5% CO2, 75% relative humidity). Plasma (15 μl) and buffer (45 μl) were sampled from each insert and were matrix-matched with appropriate blank matrix (plasma with 45 μl buffer and buffer with 15 μl of plasma). Samples were protein-precipitated with acetonitrile containing internal standard, and the resulting supernatant was analysed by LC-MS/MS.

CatD [7] = target: T3, CatD; assay: CatD cellular assay (competition of PF-7802 photolabelling in live ARPE-19 cells); assay type: cell-based; design: host or cells: ARPE-19
Procedure: ARPE-19 cells were plated at a density of 1.2 × 10^6 cells per well in six-well dishes 12–24 h before probe labelling. Culture media was removed completely and replaced with 1 ml of the appropriate serum-free media (no supplements) per well. Cells were then pretreated with test compounds at the indicated concentrations for 30 min (0.5% DMSO, 37 °C, 5% CO2). […] Ultraviolet irradiation was performed without culture plate lids for efficient irradiation, and samples were slowly rotated to prevent evaporation. After ultraviolet irradiation, cells were washed twice with Dulbecco's phosphate-buffered saline (DPBS), scraped into DPBS, centrifuged and stored as pellets at −80 °C.
Cells were lysed with sonication on ice in 70 μl DPBS and protein concentrations were determined using a BCA assay (Pierce). Total protein concentrations were then normalized to 1 mg ml^−1 in 50 μl total volume before addition of 5.5 μl click chemistry mix (1 : 3 : 1 : 0.5 volume of 50 mM CuSO4 (Sigma) in H2O : 1.7 mM TBTA (Sigma) in 4:1 t-BuOH:DMSO : 50 mM TCEP (Hampton Research) in dPBS : 10 mM TAMRA-azide (Lumiprobe) in DMSO - mixed immediately before use. Reagent solutions can be premade and stored at 4 °C except for TCEP, which should be made immediately before use). […] All fluorescence gels are presented in greyscale.
Target sequence in this assay (P07339 169-412 limits assumed): as the sequence (P07339 169-412 limits assumed) above
Target sequence in this assay (P07339 65-162 limits assumed): as the sequence (P07339 65-162 limits assumed) above

[8] = tested on: retinal pigment epithelium (RPE); assay: Exploratory toxicology, ocular toxicity by retinal histology in rats; assay type: in vivo; conditions: rat, 14 days
Procedure: as §4

[9] = In vivo metabolism of BACE1 inhibitors in rats; design: species or system rat
[10] = pKa determination by multiplexed capillary electrophoresis; assay type: physicochemical; conditions: aqueous buffers
Procedure: All pKa values were determined at Analiza, Inc. by multiplexed capillary electrophoresis (mCE) using 96-capillary array electrophoresis instrument to measure the effective mobility (migration time of the compound in relation to neutral marker, DMSO) with ultraviolet detection. The pKa values were obtained from the ionization curves by plotting the compound effective mobility (24 points across pH range 1.7–11.2) versus pH. All pKa results were determined using aqueous buffers with method average absolute error 0.12.

[11] = tested on: CatD protein level in ARPE-19 cells; assay: Chronic ARPE-19 inhibitor treatment and CatD ELISA; assay type: cell-based, human; conditions: 300 pM-10 μM, 7 days
Procedure: ARPE-19 cells were plated in 96-well plates at a density of 2 × 10^4 cells per well. After 12–24 h, media was removed and replaced with media containing test compounds at the indicated concentration. After 7 days of compound incubation (no media changes or additional test compound treatments), conditioned media was collected for a cytotoxicity assay, and attached cells were washed once with DPBS and then lysed on ice with gentle pipetting followed by a 20 min extraction in 50 μl in ice-cold RIPA buffer (50 mM Tris, pH 7.4, 150 mM NaCl, 1 mM EDTA, 1% NP40, 1% Na deoxycholate, 0.1% SDS) supplemented with 1 mM PMSF (Sigma) and EDTA-free protease inhibitor cocktail tablets (Roche). Cytotoxicity was determined from conditioned media using an LDH assay (Pierce 88954) as per the manufacturer's protocol. CatD protein levels were measured by ELISA (EMD Millipore Q1A29) as per the manufacturer's protocol. For both the LDH assay and the ELISA, absorbance was read on an EnVision plate reader (PerkinElmer). Data were normalized to DMSO and plotted in GraphPad Prism.

[12] = target: T4, ~30 kDa band (CatD heavy chain) in ARPE-19 cells (Homo sapiens, UniProt P07339); assay: Live cell PF-7802 labelling, in-gel fluorescence analysis; assay type: cell-based; conditions: pretreatment 2 µM inhibitor, PF-7802 100 nM
T4 construct: host or cells: ARPE-19
T4 sequence (P07339 169-412 limits assumed): as the sequence (P07339 169-412 limits assumed) above
T4 sequence (P07339 65-162 limits assumed): as the sequence (P07339 65-162 limits assumed) above

- IC50 (BACE2): 120 nM
- IC50 (CatD [2]): 1200 nM
- Microsomal stability (Microsomal stability): poor microsomal stability
- IC50 (BACE1 [3]): 44 nM
- PF-7802 labelling in HEK293T cells overexpressing CatD (CatD [4]): robust labelling of CatD was observed
- IC50 (BACE1 [5]): 320 nM
Compound: C#CCOc1ccc(C(=O)c2ccc(COC[C@H]3C[C@H]4CSC(N)=N[C@@]4(c4ccc(F)cc4F)CO3)cc2)cc1 [PF-7802]
- PF-7802 labelling in HEK293T cells overexpressing BACE1 (BACE1 [1]): indistinguishable from a mock transfected control

Compound: C[C@@H](NC(=O)c1cc(C(=O)N[C@@H](Cc2ccccc2)[C@H](O)CNC2CC2)cc(N(C)S(C)(=O)=O)c1)c1ccccc1 [BACE1 inhibitor IV]
- Ocular pathology in wild-type mice (retina): could also be induced in vivo in wild-type mice

Compound: Cc1coc([C@H]2C[C@H]3[C@@H](CF)SC(N)=N[C@@]3(c3ccc(F)cc3F)CO2)n1 [PF-1283]
- IC50 (BACE2): 95 nM
- concentration at 29 days ([6]; 45 mg kg-1 once daily): 109 nM
- Avg Cp,u metabolite ([6]; 45 mg kg-1 once daily): 352 nM
- concentration at 29 days ([6]; 110 mg kg-1 once daily): 793 nM
- Avg Cp,u metabolite ([6]; 110 mg kg-1 once daily): 859 nM
- IC50 (CatD [2]): 13000 nM
- IC50 (BACE1 [3]): 120 nM
- CatD potency increase in live cells (CatD [7]; CatD enzyme IC50 versus CatD cellular IC50): 54 x
- IC50 (CatD [7]; live ARPE-19 cells, PF-7802 photoprobe 100 nM, 30 min): 240 nM
- Female ocular toxicity incidence (positive or negative animals / total evaluated) ([8]; 45 mg kg-1 once daily): 3/3
- Female ocular toxicity outcome ([8]; 45 mg kg-1 once daily): Neg (negative (neg) if there was no ocular abnormality observed)
- Male ocular toxicity incidence (positive or negative animals / total evaluated) ([8]; 45 mg kg-1 once daily): 3/3
- Male ocular toxicity outcome ([8]; 45 mg kg-1 once daily): Neg (negative (neg) if there was no ocular abnormality observed)
- Female ocular toxicity incidence (positive or negative animals / total evaluated) ([8]; 110 mg kg-1 once daily): 1/3
- Female ocular toxicity outcome ([8]; 110 mg kg-1 once daily): Pos
- Male ocular toxicity incidence (positive or negative animals / total evaluated) ([8]; 110 mg kg-1 once daily): 3/3
- Male ocular toxicity outcome ([8]; 110 mg kg-1 once daily): Neg (negative (neg) if there was no ocular abnormality observed)
- Stability to oxidative metabolism [9]: significantly more stable to oxidative metabolism; also recorded: significantly less susceptible to oxidative metabolism
- BACE1 potency increase in live cells (BACE1 [5]; BACE1 enzyme IC50 versus BACE1 cellular IC50): 12 x
- IC50 (BACE1 [5]): 10 nM
- pKa [10]: 7.0

- BACE2 activity (BACE2): no activity
- Inhibition of purified CatD (CatD [2]; purified CatD biochemical substrate assay): potent; also recorded: nanomolar potency
- BACE1 activity (BACE1 [3]): no BACE1 activity
- Competition of PF-7802 labelling of the 30 kDa band [12]: blocked labelling of the 30 kDa band
Compound: CNC1CCN(C(=O)C[C@@H](Cc2ccccc2)C(=O)N[C@@H](CSC)C(=O)N[C@@H](CC2CCCCC2)[C@@H](O)C(=O)OC(C)C)CC1 [CP-108671, reference compound]
- CatD protein accumulation (ELISA) [11]: could be reproduced

Reference: publication PMC5062570 (Nature Communications, 2016)
